We go through 14 compounds from US6727272B1, “Leflunomide analogs for treating rheumatoid arthritis” (Unitech Pharmaceuticals, Inc., priority 2002, dated 2004).

This test concerns Carrageenan-stimulated inflammation on the rear left footpad of the rat. The experiment in a line: Carrageenan-induced footpad edema in rats (Edema Rate E% and Inhibition Rate I%). The class given is in vivo, Wistar Albino Rats. The note with it: sc, vs control group edema rate, read-out: percentage inhibition rate (I %). How it is done:
Wistar Albino Rats of 4 to 6 weeks old with weights of 100-150 g were used for the studies.
Weigh 30 mg of λ-carrageenan (Sigma Chemical) powder; add 3 mL of saline to make the 1% carrageenan solution.
Individually weigh 10 mg of each testing compound; add 10 mL of 1% CMC and shake to make the suspension.
In the present invention, Carrageenan was used to stimulate the inflammation on the rear left footpad of the rat. The inflammation on the left footpad of each rat was measured for rats with and without treatment. Treatment includes leflunomide analogs, dexamethasone, ibuprofen, and Malononitrilamide (MNA). Measurements of the inflamation at pre-determined time points were made.
The rats were weighed and divided into three groups: (1) Control Group, (2) Test Group, and (3) Comparison Group. For each compound, 5 rats were used and marked on the tails. Before injecting carrageenan, the volume of each left footpad was measured (V0). Each rat was injected in the back as follows:
(1) Control Group: 1% CMC for Control Group,
(2) Testing Group: testing compound (10 mg/kg each) in 1% CMC, and
(3) Comparison Group: dexamethasone (1.5 mg/kg in 1% CMC), ibuprofen 10 mg/kg in 1% CMC, MNA in 1% CMC.
One hour later, 0.05 mL of 1% carrageenan was injected onto the rear footpad of each rat to initiate the inflammation. Measure the volume of the rear left footpad (Vt) at 0.5, 1, 2, 3, 4, and 5 hours.
The Edema Rate (E%) and the Inhibition Rate (I%) are calculated as follows and the results of the in-vivo studies are summarized in Table 1 and Table 2. [formula]
V0=Volume (mL) of the rear left footpad before the injection of Carrageenan.
Vt=Volume (mL) of the rear left footpad at “t” time after the injection of Carrageenan
Ec=Edema Rate of the, Control Group
Et=Edema Rate of the Testing Group and Comparison Group

Read-outs that look alike come from different tables or passages of the source.

`Cc1cc(C(=O)Nc2ccccc2)no1` [Compound 5a, N-(Phenyl)-3-carboxamidyl-5-methylisoxazole]: the inhibition in vivo at 10 mg/kg by setting is: (1 h, 1 hr) 62.5%; (2 h, 2 hr) 74.9%; (3 h, 3 hr) 78.8%; (4 h, 4 hr) 78.4%; (5 h, 5 hr) 44.5%.

For the compound `Cc1cc(C(=O)Nc2ccccc2Cl)no1` [Compound 5b], the inhibition in vivo at 10 mg/kg runs as follows: (1 h, 1 hr) 80.1%; (2 h, 2 hr) 82.5%; (3 h, 3 hr) 79.4%; (4 h, 4 hr) 79%; (5 h, 5 hr) 77.7%.

Regarding `Cc1cc(C(=O)Nc2cccc(Cl)c2)no1` [Compound 5c, N-(3-Chlorophenyl)-3-carboxamidyl-5-methylisoxazole], the inhibition in vivo at 10 mg/kg by setting is: (1 h, 1 hr) 64.4%; (2 h, 2 hr) 55.3%; (3 h, 3 hr) 60.6%; (4 h, 4 hr) 63.8%; (5 h, 5 hr) 61.1%.

`Cc1cc(C(=O)Nc2ccc(Cl)cc2)no1` [Compound 5d, N-(4-Chlorophenyl)-3carboxamidyl-5-methyisoxazole]: the inhibition in vivo at 10 mg/kg by setting is: (1 h, 1 hr) 70.2%; (2 h, 2 hr) 72.8%; (3 h, 3 hr) 77.6%; (4 h, 4 hr) 77.8%; (5 h, 5 hr) 76%.

As for `Cc1cc(C(=O)Nc2cccc(C(F)(F)F)c2)no1` [Compound 5e, N-(3-Trifluoromethyl)-3-carboxamidyl-5-methylisoxazole], the inhibition in vivo at 10 mg/kg worked out at 26% (1 h, 1 hr); 41.7% (2 h, 2 hr); 40.7% (3 h, 3 hr); 44% (4 h, 4 hr); 46.8% (5 h, 5 hr).

With `Cc1cc(C(=O)Nc2ccc(C(F)(F)F)cc2)no1` [Compound 5f, N-(4-Trifluoromethylphenyl)3-carboxamidyl-5-methylisoxazole], the inhibition in vivo at 10 mg/kg is 46.2% (1 h, 1 hr); 53.8% (2 h, 2 hr); 54.6% (3 h, 3 hr); 58.4% (4 h, 4 hr); 58.3% (5 h, 5 hr).

As for `Cc1cc(C(=O)Nc2ccc(Cl)cc2Cl)no1` [Compound 5g, N-(2,4-Dichlorophenyl)-3carboxamidyl-5-methylisoxazole], the inhibition in vivo at 10 mg/kg is, setting by setting: (1 h, 1 hr) 79.3%; (2 h, 2 hr) 83.1%; (3 h, 3 hr) 77.4%; (4 h, 4 hr) 79%; (5 h, 5 hr) 78%.

For the compound `COc1ccc(NC(=O)c2cc(C)on2)cc1` [Compound 5h, N-(4-Methoxyphenyl)-3carboxamidyl-5-methylisoxazole], the inhibition in vivo at 10 mg/kg runs as follows: (1 h, 1 hr) 24%; (2 h, 2 hr) 18.9%; (3 h, 3 hr) 41.6%; (4 h, 4 hr) 44.3%; (5 h, 5 hr) 43.1%.

For `COc1cc(NC(=O)c2cc(C)on2)cc(OC)c1OC` [Compound 5i, N-(3,4,5-Trimethoxyphenyl)-3-carboxamidyl-5-methylisoxazole], the inhibition in vivo at 10 mg/kg by setting is: (1 h, 1 hr) 6.7%; (2 h, 2 hr) 34%; (3 h, 3 hr) 39.1%; (4 h, 4 hr) 42.7%; (5 h, 5 hr) 42.5%.

For the compound `Cc1cc(C(=O)Nc2ccc(C(=O)O)cc2)no1` [Compound 5j, 4-[(5-Methylisoxazole-3-carbonyl)-amino]-benzoic acid], the inhibition in vivo at 10 mg/kg is, setting by setting: (1 h, 1 hr) 50.5%; (2 h, 2 hr) 46.7%; (3 h, 3 hr) 56.2%; (4 h, 4 hr) 58.3%; (5 h, 5 hr) 57.4%.

Regarding `Cc1cc(C(=O)Nc2ccc(F)cc2)no1` [Compound 5k, N-(4-Fluorophenyl)-3-carboxamidyl-5-methylisoxazole], the inhibition in vivo at 10 mg/kg is, setting by setting: (1 h, 1 hr) 46.2%; (2 h, 2 hr) 17.5%; (3 h, 3 hr) 38.7%; (4 h, 4 hr) 43.5%; (5 h, 5 hr) 43.7%.

On to `C[C@@H]1C[C@H]2[C@@H]3CCC4=CC(=O)C=C[C@]4(C)[C@@]3(F)[C@@H](O)C[C@]2(C)[C@@]1(O)C(=O)CO` [Dexamethasone, reference compound], for which the inhibition in vivo at 1.5 mg/kg was 73.6% (1 h, 1 hr); 64.5% (2 h, 2 hr); 65.8% (3 h, 3 hr); 66.5% (4 h, 4 hr); 66.4% (5 h, 5 hr).

In the case of `CC(C)Cc1ccc(C(C)C(=O)O)cc1` (stereo not drawn) [Ibuprofen, reference compound], the inhibition in vivo at 10 mg/kg runs as follows: (1 h, 1 hr) 9.1%; (2 h, 2 hr) 21.6%; (3 h, 3 hr) 45.9%; (4 h, 4 hr) 44.4%; (5 h, 5 hr) 38%. Moreover, the inhibition in vivo at 20 mg/kg was 20.8% (1 h, 1 hr); 43.2% (2 h, 2 hr); 55.7% (3 h, 3 hr); 55.1% (4 h, 4 hr); 51.6% (5 h, 5 hr). Also, the inhibition in vivo at 30 mg/kg worked out at 65.4% (1 h, 1 hr); 67.8% (2 h, 2 hr); 79.7% (3 h, 3 hr); 74.9% (4 h, 4 hr); 53% (5 h, 5 hr).

In the case of `Cc1oncc1C(=O)Nc1ccc(C(F)(F)F)cc1` [Leflunomide, N-(4-trifluoromethylphenyl)-4-carboxamidyl-5-methylisoxazole], the inhibition in vivo at 5 mg/kg reads like this: (1 h, 1 hr) 3.8%; (2 h, 2 hr) 19.5%; (3 h, 3 hr) 41%; (4 h, 4 hr) 38.6%; (5 h, 5 hr) 38.3%. Besides, the inhibition in vivo at 10 mg/kg (1 h, 1 hr) stood at 28.4%; the inhibition in vivo at 10 mg/kg (2 h, 2 hr) turned out to be 34.3%; the inhibition in vivo at 10 mg/kg (3 h, 3 hr) turned out to be 55%; the inhibition in vivo at 10 mg/kg (4 h, 4 hr) came to 47.8%; the inhibition in vivo at 10 mg/kg (5 h, 5 hr) worked out at 46%. For the same compound, the inhibition in vivo at 20 mg/kg was 45.7% (1 h, 1 hr); 50% (2 h, 2 hr); 60.4% (3 h, 3 hr); 60.3% (4 h, 4 hr); 57.4% (5 h, 5 hr).
